According to PubChem BioAssay (NCI):
“And” between values parts separate entries of the source, which are not always exact repeats. Equal values may be shown once.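 The compound was tested at five concentrations on cells cultured in 96-well plates, with a 48-hour exposure period. GI50 = concentration required for 50% inhibition of growth. TGI marks complete inhibition of growth.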

Experiments:
Assay in all cases: NCI tumour cell line growth inhibition, 48 h
SF-539 CNS = system: SF-539 CNS
UACC-257 melanoma = system: UACC-257 melanoma
KM20L2 colon = system: KM20L2 colon
MALME-3M melanoma = system: MALME-3M melanoma
OVCAR-3 ovarian = system: OVCAR-3 ovarian
MDA-MB-231 breast = system: MDA-MB-231 breast
IGROV1 ovarian = system: IGROV1 ovarian
XF 498 CNS = system: XF 498 CNS
SN12C renal = system: SN12C renal
SK-MEL-2 melanoma = system: SK-MEL-2 melanoma
EKVX NSCLC = system: EKVX NSCLC
SNB-78 CNS = system: SNB-78 CNS
NCI/ADR-RES ovarian = system: NCI/ADR-RES ovarian
MDA-MB-435 = system: MDA-MB-435
OVCAR-4 ovarian = system: OVCAR-4 ovarian
ACHN renal = system: ACHN renal
HL-60(TB) leukemia = system: HL-60(TB) leukemia
CCRF-CEM leukemia = system: CCRF-CEM leukemia
RXF 393 renal = system: RXF 393 renal
MOLT-4 leukemia = system: MOLT-4 leukemia
SN12K1 renal = system: SN12K1 renal
HCT-15 colon = system: HCT-15 colon
UACC-62 melanoma = system: UACC-62 melanoma
NCI-H226 lung = system: NCI-H226 lung
HOP-18 NSCLC = system: HOP-18 NSCLC
SK-OV-3 ovarian = system: SK-OV-3 ovarian
OVCAR-5 ovarian = system: OVCAR-5 ovarian
HCT-116 colon = system: HCT-116 colon
KM12 colon = system: KM12 colon
SNB-75 CNS = system: SNB-75 CNS
MDA-N = system: MDA-N
T-47D breast = system: T-47D breast
HT29 colon = system: HT29 colon
K-562 leukemia = system: K-562 leukemia
HOP-92 NSCLC = system: HOP-92 NSCLC
SF-268 CNS = system: SF-268 CNS
M19-MEL melanoma = system: M19-MEL melanoma
PC-3 prostate = system: PC-3 prostate
MCF7 breast = system: MCF7 breast
CAKI-1 renal = system: CAKI-1 renal
DMS 273 small cell lung = system: DMS 273 small cell lung
SR leukemia = system: SR leukemia
P388/ADR leukemia = system: P388/ADR leukemia
BT-549 breast = system: BT-549 breast
SW-620 colon = system: SW-620 colon
SNB-19 CNS = system: SNB-19 CNS
SF-295 CNS = system: SF-295 CNS
OVCAR-8 ovarian = system: OVCAR-8 ovarian
RPMI-8226 leukemia = system: RPMI-8226 leukemia
A498 renal = system: A498 renal
HCC-2998 colon = system: HCC-2998 colon
DU-145 prostate = system: DU-145 prostate
M14 melanoma = system: M14 melanoma
COLO 205 colon = system: COLO 205 colon

With `COc1ccc2c(c1)c1c(C)c3cnccc3c(C)c1n2CCCN` the GI50 (SF-539 CNS) was 0.175 µM, the TGI (SF-539 CNS) was 0.855 µM and 0.421 µM and the TGI (UACC-257 melanoma) was 1 µM and 1.69 µM. For the same compound, the TGI (KM20L2 colon) was 0.685 µM, the GI50 (MALME-3M melanoma) was 0.225 µM and the TGI (MALME-3M melanoma) was 1.42 µM and 0.609 µM. The GI50 (OVCAR-3 ovarian) was 0.119 µM, the TGI (OVCAR-3 ovarian) was 1.18 µM and 0.495 µM and the TGI (MDA-MB-231 breast) was 0.381 µM. The GI50 (IGROV1 ovarian) was 0.136 µM, the TGI (IGROV1 ovarian) was 1.32 µM and 1.18 µM and the TGI (XF 498 CNS) was 0.942 µM. For the same compound, the GI50 (SN12C renal) was 0.17 µM, the TGI (SN12C renal) was 0.916 µM and 1.01 µM and the GI50 (SK-MEL-2 melanoma) was 0.193 µM. For the same compound, the TGI (SK-MEL-2 melanoma) was 0.815 µM and 0.393 µM, the GI50 (EKVX NSCLC) was 0.106 µM and the TGI (EKVX NSCLC) was 0.771 µM and 0.405 µM. The TGI (SNB-78 CNS) was 0.653 µM, the GI50 (NCI/ADR-RES ovarian) was 0.217 µM and the TGI (NCI/ADR-RES ovarian) was 0.696 µM and 0.759 µM. The TGI (MDA-MB-435) was 0.19 µM, the GI50 (OVCAR-4 ovarian) was 0.0161 µM and the TGI (OVCAR-4 ovarian) was 0.394 µM and 0.143 µM. For the same compound, the TGI (ACHN renal) was 0.695 µM, the GI50 (HL-60(TB) leukemia) was 0.45 µM and 0.238 µM and the TGI (HL-60(TB) leukemia) was 0.977 µM and 1.02 µM. The GI50 (CCRF-CEM leukemia) was 0.0472 µM and < 0.01 µM, the GI50 (RXF 393 renal) was 0.145 µM and the TGI (RXF 393 renal) was 0.168 µM and 0.307 µM. For the same compound, the TGI (MOLT-4 leukemia) was 0.578 µM and 0.139 µM, the TGI (SN12K1 renal) was 0.239 µM and the GI50 (HCT-15 colon) was 0.0624 µM. The TGI (HCT-15 colon) was 0.473 µM and 0.955 µM, the GI50 (UACC-62 melanoma) was 0.263 µM and the TGI (UACC-62 melanoma) was 0.95 µM and 0.778 µM. For the same compound, the GI50 (NCI-H226 lung) was 0.558 µM and 0.416 µM, the TGI (NCI-H226 lung) was 1.3 µM and 1.6 µM and the TGI (HOP-18 NSCLC) was 1.55 µM. The GI50 (SK-OV-3 ovarian) was 0.202 µM, the TGI (SK-OV-3 ovarian) was 1.14 µM and 0.713 µM and the GI50 (OVCAR-5 ovarian) was 0.0946 µM. The TGI (OVCAR-5 ovarian) was 1.12 µM and 0.542 µM, the GI50 (HCT-116 colon) was 0.0659 µM and the TGI (HCT-116 colon) was 0.303 µM and 1.06 µM. The GI50 (KM12 colon) was 0.0798 µM and 0.0298 µM, the TGI (KM12 colon) was 0.483 µM and 0.213 µM and the GI50 (SNB-75 CNS) was 0.064 µM. For the same compound, the TGI (SNB-75 CNS) was 0.791 µM and 0.206 µM, the TGI (MDA-N) was 0.306 µM and the TGI (T-47D breast) was 0.76 µM. For the same compound, the GI50 (HT29 colon) was < 0.0114 µM, the TGI (HT29 colon) was 0.734 µM and 0.182 µM and the GI50 (K-562 leukemia) was 0.0712 µM and 0.0139 µM. The TGI (K-562 leukemia) was 0.637 µM and 0.382 µM, the GI50 (HOP-92 NSCLC) was 0.352 µM and the TGI (HOP-92 NSCLC) was 0.739 µM and 1.13 µM. The GI50 (SF-268 CNS) was 0.0633 µM and 0.0577 µM, the TGI (SF-268 CNS) was 0.204 µM and 0.425 µM and the TGI (M19-MEL melanoma) was 0.633 µM. The TGI (PC-3 prostate) was 0.302 µM, the GI50 (MCF7 breast) was 0.0162 µM and the TGI (MCF7 breast) was 0.663 µM and 0.108 µM. The GI50 (CAKI-1 renal) was 0.13 µM and 0.164 µM, the TGI (CAKI-1 renal) was 0.491 µM and 0.806 µM and the TGI (DMS 273 small cell lung) was 0.382 µM. The TGI (SR leukemia) was 0.118 µM, the TGI (P388/ADR leukemia) was 0.725 µM and the TGI (BT-549 breast) was 2.6 µM. For the same compound, the GI50 (SW-620 colon) was < 0.01 µM, the TGI (SW-620 colon) was 0.584 µM and 0.602 µM and the GI50 (SNB-19 CNS) was 0.0337 µM. For the same compound, the TGI (SNB-19 CNS) was 1.44 µM and 0.512 µM, the GI50 (SF-295 CNS) was 0.147 µM and the TGI (SF-295 CNS) was 0.621 µM and 1 µM. For the same compound, the GI50 (OVCAR-8 ovarian) was 0.105 µM, the TGI (OVCAR-8 ovarian) was 0.741 µM and 0.892 µM and the GI50 (RPMI-8226 leukemia) was 0.0931 µM and 0.0894 µM. The TGI (RPMI-8226 leukemia) was 0.443 µM and 0.555 µM, the GI50 (A498 renal) was 0.317 µM and the TGI (A498 renal) was 0.856 µM and 0.885 µM. For the same compound, the GI50 (HCC-2998 colon) was 0.0753 µM, the TGI (HCC-2998 colon) was 1.2 µM and 0.225 µM and the TGI (DU-145 prostate) was 0.389 µM. The TGI (M14 melanoma) was 0.33 µM, the GI50 (COLO 205 colon) was 0.0822 µM and the TGI (COLO 205 colon) was 0.751 µM and 0.259 µM.
